Assay results from PubChem BioAssay AID328 (DTP/NCI, 2004).
“And” between values parts separate entries of the source, which are not always exact repeats. Identical values can stand only once. Inconclusive results and toxic doses are left out.

Test system: BDF1 mice, P388 leukemia ip, median survival T/C
Assay: NCI In Vivo Anticancer Drug Screen. Data for tumor model P388 Leukemia (intraperitoneal) in B6D2F1 (BDF1) mice
Details: endpoint: median survival time, higher = longer survival
In short: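 Steps: implant the tumour, treat one group with compound and another with vehicle, record survival, then divide treated by control.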

[1] = dose: 100.0 mg/kg/injection, schedule: Q04DX003 (ip), vehicle: Klucel (hydroxypropylcellulose) (HPC)
[2] = dose: 200.0 mg/kg/injection, schedule: Q04DX003 (ip), vehicle: Klucel (hydroxypropylcellulose) (HPC)
[3] = dose: 12.5 mg/kg/injection, schedule: Q01DX009 (ip), vehicle: water
[4] = dose: 25.0 mg/kg/injection, schedule: Q01DX009 (ip), vehicle: water

OCC[P+](c1ccccc1)(c1ccccc1)c1ccccc1
T/C (dose: 25.0 mg/kg/injection, schedule: Q01DX001 (ip), vehicle: saline): 108 % of control | T/C (dose: 50.0 mg/kg/injection, schedule: Q01DX001 (ip), vehicle: saline): 98 % of control

COc1ccc(CC2c3cc(OC)c(OC)cc3CC[N+]2(C)C)cc1OC (stereo unspecified)
T/C (dose: 12.5 mg/kg/injection, schedule: Q01DX009 (ip), vehicle: saline sonified): 108 % of control | T/C (dose: 25.0 mg/kg/injection, schedule: Q01DX009 (ip), vehicle: saline sonified): 100 % of control | T/C (dose: 50.0 mg/kg/injection, schedule: Q01DX009 (ip), vehicle: saline sonified): 91 % of control

CCN(C(=O)C(F)(F)F)C(C)(C)C(SSSC(c1ccc(Cl)cc1)C(C)(C)N(CC)C(=O)C(F)(F)F)c1ccc(Cl)cc1 (stereo unspecified)
T/C (dose: 22.0 mg/kg/injection, schedule: Q01DX009 (ip), vehicle: Klucel (hydroxypropylcellulose) (HPC)): 115 % of control | T/C (dose: 33.0 mg/kg/injection, schedule: Q01DX009 (ip), vehicle: Klucel (hydroxypropylcellulose) (HPC)): 115 % of control | T/C (dose: 50.0 mg/kg/injection, schedule: Q01DX009 (ip), vehicle: Klucel (hydroxypropylcellulose) (HPC)): 120 % of control | T/C (dose: 75.0 mg/kg/injection, schedule: Q01DX009 (ip), vehicle: Klucel (hydroxypropylcellulose) (HPC)): 120 % of control | T/C (dose: 100.0 mg/kg/injection, schedule: Q01DX009 (ip), vehicle: Klucel (hydroxypropylcellulose) (HPC)): 100 % of control | T/C [1]: 112 % of control | T/C [2]: 116 % of control

CC(O)CC1CCCCN1O (stereo unspecified)
T/C (dose: 100.0 mg/kg/injection, schedule: Q04DX002 (ip), vehicle: saline with Tween-80): 110 % of control | T/C (dose: 200.0 mg/kg/injection, schedule: Q04DX002 (ip), vehicle: saline with Tween-80): 101 % of control | T/C (dose: 400.0 mg/kg/injection, schedule: Q04DX002 (ip), vehicle: saline with Tween-80): 100 % of control

CS(=O)(=O)OCCC#N
T/C (dose: 25.0 mg/kg/injection, schedule: Q01DX009 (ip), vehicle: saline): 113 % of control | T/C (dose: 50.0 mg/kg/injection, schedule: Q01DX009 (ip), vehicle: saline): 91 % of control and 104 % of control | T/C (dose: 100.0 mg/kg/injection, schedule: Q01DX009 (ip), vehicle: saline): 113 % of control | T/C (dose: 100.0 mg/kg/injection, schedule: Q04DX003 (ip), vehicle: alcohol): 110 % of control | T/C (dose: 150.0 mg/kg/injection, schedule: Q01DX009 (ip), vehicle: saline): 95 % of control

O=[N+]([O-])c1cccc2ccc(N/N=C/c3ccccc3O)nc12
T/C (dose: 10.0 mg/kg/injection, schedule: Q01DX009 (ip), vehicle: Klucel (hydroxypropylcellulose) (HPC)): 96 % of control | T/C (dose: 20.0 mg/kg/injection, schedule: Q01DX009 (ip), vehicle: Klucel (hydroxypropylcellulose) (HPC)): 122 % of control | T/C (dose: 40.0 mg/kg/injection, schedule: Q01DX009 (ip), vehicle: Klucel (hydroxypropylcellulose) (HPC)): 111 % of control

O=S(CC(Cl)c1ccccc1)c1ccccc1 (stereo unspecified)
T/C (dose: 50.0 mg/kg/injection, schedule: Q01DX009 (ip), vehicle: other): 106 % of control | T/C (dose: 100.0 mg/kg/injection, schedule: Q01DX009 (ip), vehicle: other): 106 % of control | T/C (dose: 200.0 mg/kg/injection, schedule: Q01DX009 (ip), vehicle: other): 100 % of control

NC(N)=Nc1ccc(OC(=O)c2ccc(N=C(N)N)cc2)cc1
T/C (dose: 1.56 mg/kg/injection, schedule: Q01DX009 (ip), vehicle: water): 106 % of control | T/C (dose: 3.12 mg/kg/injection, schedule: Q01DX009 (ip), vehicle: water): 94 % of control | T/C (dose: 6.25 mg/kg/injection, schedule: Q01DX009 (ip), vehicle: water): 103 % of control | T/C [3]: 110 % of control | T/C [4]: 103 % of control

C[n+]1cc2ccccc2c2ccccc21
T/C [3]: 95 % of control and 109 % of control | T/C (dose: 12.5 mg/kg/injection, schedule: Q04DX003 (ip), vehicle: water): 105 % of control | T/C (dose: 15.0 mg/kg/injection, schedule: Q01DX009 (ip), vehicle: water): 108 % of control | T/C [4]: 101 % of control and 115 % of control | T/C (dose: 25.0 mg/kg/injection, schedule: Q04DX003 (ip), vehicle: water): 114 % of control

CC1OC(OC2C(CO)OC(O[C@H]3CC[C@@]4(C)C(=CC[C@H]5[C@@H]6C[C@@H]7O[C@@]8(CC[C@H](C)CN8)[C@@H](C)[C@@H]7[C@@]6(C)CC[C@@H]54)C3)C(OC3OC(C)C(O)C(O)C3O)C2O)C(O)C(O)C1O (stereo partly specified)
T/C (dose: 2.5 mg/kg/injection, schedule: Q01DX009 (ip), vehicle: water): 95 % of control and 100 % of control | T/C (dose: 5.0 mg/kg/injection, schedule: Q01DX009 (ip), vehicle: water): 109 % of control | T/C (dose: 10.0 mg/kg/injection, schedule: Q01DX009 (ip), vehicle: water): 100 % of control and 104 % of control | T/C (dose: 20.0 mg/kg/injection, schedule: Q01DX009 (ip), vehicle: water): 95 % of control and 100 % of control

C/C=C1\C(=O)OC23C=CC4C(C(=O)OC)C(O)OC(OC12)C43 (stereo unspecified)
T/C (dose: 0.04 mg/kg/injection, schedule: Q01DX009 (ip), vehicle: saline): 95 % of control | T/C (dose: 0.2 mg/kg/injection, schedule: Q01DX009 (ip), vehicle: saline): 100 % of control | T/C (dose: 1.0 mg/kg/injection, schedule: Q01DX009 (ip), vehicle: saline + alcohol): 110 % of control

CCC1(O)CC(OC2CC(N(C)C)C(OC3CC(O)C(OC4CCC(=O)C(C)O4)C(C)O3)C(C)O2)c2c(cc3c(c2O)C(=O)c2c(O)ccc(O)c2C3=O)C1C(=O)OC (stereo unspecified)
T/C (dose: 2.88 mg/kg/injection, schedule: Q04DX003 (ip), vehicle: water): 181 % of control | T/C (dose: 4.8 mg/kg/injection, schedule: Q04DX003 (ip), vehicle: water): 236 % of control | T/C (dose: 1:8.0 dilution, schedule: Q01DX009 (ip), vehicle: saline): 173 % of control | T/C (dose: 1:64.0 dilution, schedule: Q01DX009 (ip), vehicle: saline): 116 % of control

CC(=O)[O][Hg][c]1c(C)c(C)c(C)c(C)c1C
T/C (dose: 3.12 mg/kg/injection, schedule: Q01DX009 (ip), vehicle: Klucel (hydroxypropylcellulose) (HPC)): 98 % of control | T/C (dose: 6.25 mg/kg/injection, schedule: Q01DX009 (ip), vehicle: Klucel (hydroxypropylcellulose) (HPC)): 109 % of control | T/C (dose: 12.5 mg/kg/injection, schedule: Q01DX009 (ip), vehicle: Klucel (hydroxypropylcellulose) (HPC)): 90 % of control and 107 % of control

Cc1cc(C(C)(C)CC(C)(C)C)cc(O)c1O
T/C (dose: 100.0 mg/kg/injection, schedule: Q04DX003 (ip), vehicle: other): 113 % of control | T/C (dose: 200.0 mg/kg/injection, schedule: Q04DX003 (ip), vehicle: other): 109 % of control | T/C (dose: 400.0 mg/kg/injection, schedule: Q04DX003 (ip), vehicle: other): 100 % of control

Clc1nc(SC2=NCCN2)c2[nH]cnc2n1
T/C (dose: 12.5 mg/kg/injection, schedule: Q04DX003 (ip), vehicle: saline with Tween-80): 108 % of control | T/C (dose: 33.0 mg/kg/injection, schedule: Q04DX003 (ip), vehicle: saline with Tween-80): 118 % of control | T/C (dose: 50.0 mg/kg/injection, schedule: Q04DX003 (ip), vehicle: saline with Tween-80): 154 % of control

NC(=O)Nc1cccc2ccccc12
T/C [1]: 88 % of control | T/C (dose: 200.0 mg/kg/injection, schedule: Q01DX009 (ip), vehicle: gum acacia): 92 % of control | T/C [2]: 92 % of control | T/C (dose: 400.0 mg/kg/injection, schedule: Q01DX009 (ip), vehicle: gum acacia): 96 % of control

CCN(CC)CCNc1ccc(CO)c2sc3ccccc3c(=O)c12
T/C (dose: 17.3 mg/kg/injection, schedule: Q01DX009 (ip), vehicle: water): 108 % of control | T/C (dose: 18.75 mg/kg/injection, schedule: Q01DX009 (ip), vehicle: saline): 104 % of control | T/C (dose: 21.6 mg/kg/injection, schedule: Q01DX009 (ip), vehicle: water): 119 % of control | T/C (dose: 28.8 mg/kg/injection, schedule: Q01DX009 (ip), vehicle: water): 122 % of control | T/C (dose: 42.0 mg/kg/injection, schedule: Q01DX009 (ip), vehicle: water): 150 % of control | T/C (dose: 48.0 mg/kg/injection, schedule: Q01DX009 (ip), vehicle: water): 170 % of control | T/C (dose: 60.0 mg/kg/injection, schedule: Q01DX009 (ip), vehicle: water): 160 % of control | T/C (dose: 70.0 mg/kg/injection, schedule: Q01DX009 (ip), vehicle: water): 122 % of control | T/C (dose: 75.0 mg/kg/injection, schedule: Q01DX009 (ip), vehicle: saline): 116 % of control | T/C (dose: 80.0 mg/kg/injection, schedule: Q01DX009 (ip), vehicle: water): 188 % of control | T/C (dose: 88.0 mg/kg/injection, schedule: Q04DX003 (ip), vehicle: saline): 109 % of control | T/C (dose: 100.0 mg/kg/injection, schedule: Q01DX009 (ip), vehicle: water): 113 % of control | T/C (dose: 117.0 mg/kg/injection, schedule: Q01DX009 (ip), vehicle: water): 97 % of control | T/C (dose: 132.0 mg/kg/injection, schedule: Q04DX003 (ip), vehicle: saline): 109 % of control | T/C (dose: 200.0 mg/kg/injection, schedule: Q04DX003 (ip), vehicle: saline): 122 % of control | T/C (dose: 300.0 mg/kg/injection, schedule: Q04DX003 (ip), vehicle: saline): 163 % of control
